PubChem BioAssay AID330 (DTP/NCI, 2004)
“And” between values parts separate entries of the source, which are not always exact repeats. Identical values can stand only once. Inconclusive results and toxic doses are left out.

Tested on: P388 leukemia ip, CD2F1 mice, survival T/C
Test: NCI In Vivo Anticancer Drug Screen. Data for tumor model P388 Leukemia (intraperitoneal) in CD2F1 (CDF1) mice
Details: endpoint: median survival time, higher = longer survival
How it was run: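 Mice carrying the transplanted tumor received test compound or vehicle. Survival was recorded in each group, and the value is the treated-group measurement divided by that of the vehicle-treated control group.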

[1] = dose: 50.0 mg/kg/injection, schedule: Q01DX005 (ip), vehicle: saline with Tween-80
[2] = dose: 100.0 mg/kg/injection, schedule: Q01DX005 (ip), vehicle: saline with Tween-80
[3] = dose: 200.0 mg/kg/injection, schedule: Q01DX005 (ip), vehicle: saline with Tween-80
[4] = dose: 50.0 mg/kg/injection, schedule: Q01DX005 (ip), vehicle: Klucel (hydroxypropylcellulose) (HPC)
[5] = dose: 50.0 mg/kg/injection, schedule: Q01DX005 (ip), vehicle: saline
[6] = dose: 100.0 mg/kg/injection, schedule: Q01DX005 (ip), vehicle: saline
[7] = dose: 200.0 mg/kg/injection, schedule: Q01DX005 (ip), vehicle: saline
[8] = dose: 50.0 mg/kg/injection, schedule: Q01DX009 (ip), vehicle: Klucel (hydroxypropylcellulose) (HPC)
[9] = dose: 100.0 mg/kg/injection, schedule: Q01DX009 (ip), vehicle: Klucel (hydroxypropylcellulose) (HPC)
[10] = dose: 200.0 mg/kg/injection, schedule: Q01DX009 (ip), vehicle: Klucel (hydroxypropylcellulose) (HPC)
[11] = dose: 50.0 mg/kg/injection, schedule: Q01DX009 (ip), vehicle: saline

Compound: COc1cc2c(cc1NC(=O)N(CCCl)N=O)-c1ccccc1C2
- T/C (dose: 350.0 mg/kg/injection, schedule: Q04DX003 (ip), vehicle: Klucel (hydroxypropylcellulose) (HPC)): 163 % of control

Compound: CN1N=Nc2ccccc2NC1=O
- T/C [1]: 96 % of control
- T/C [2]: 99 % of control
- T/C [3]: 91 % of control

Compound: CC(C)N1CSC(=S)NCCNC(=S)SC1
- T/C [4]: 101 % of control
- T/C (dose: 100.0 mg/kg/injection, schedule: Q01DX005 (ip), vehicle: Klucel (hydroxypropylcellulose) (HPC)): 110 % of control
- T/C (dose: 200.0 mg/kg/injection, schedule: Q01DX005 (ip), vehicle: Klucel (hydroxypropylcellulose) (HPC)): 110 % of control

Compound: C1CN(CC2CCC(CN3CCOCC3)O2)CCO1 (stereo unspecified)
- T/C (dose: 3.12 mg/kg/injection, schedule: Q01DX005 (ip), vehicle: Klucel (hydroxypropylcellulose) (HPC)): 96 % of control
- T/C (dose: 6.25 mg/kg/injection, schedule: Q01DX005 (ip), vehicle: Klucel (hydroxypropylcellulose) (HPC)): 97 % of control
- T/C (dose: 12.5 mg/kg/injection, schedule: Q01DX005 (ip), vehicle: Klucel (hydroxypropylcellulose) (HPC)): 100 % of control
- T/C (dose: 25.0 mg/kg/injection, schedule: Q01DX005 (ip), vehicle: Klucel (hydroxypropylcellulose) (HPC)): 114 % of control
- T/C [4]: 96 % of control

Compound: COc1cccc2c1N(COC(C)=O)C(=O)C1C=CC(C)(C)OC21 (stereo unspecified)
- T/C (dose: 8.0 mg/kg/injection, schedule: Q01DX009 (ip), vehicle: Klucel (hydroxypropylcellulose) (HPC)): 97 % of control
- T/C (dose: 16.0 mg/kg/injection, schedule: Q01DX009 (ip), vehicle: Klucel (hydroxypropylcellulose) (HPC)): 95 % of control
- T/C (dose: 32.0 mg/kg/injection, schedule: Q01DX009 (ip), vehicle: Klucel (hydroxypropylcellulose) (HPC)): 97 % of control
- T/C (dose: 64.0 mg/kg/injection, schedule: Q01DX009 (ip), vehicle: Klucel (hydroxypropylcellulose) (HPC)): 92 % of control

Compound: COC1=CC(=O)C(C2(OC(C)C)OC(=O)C(Cl)=C2Cl)=CC1=O (stereo unspecified)
- T/C [1]: 119 % of control
- T/C [2]: 111 % of control

Compound: Cn1ncc2c(N(CCO)CCO)ncnc21
- T/C [5]: 100 % of control
- T/C [6]: 100 % of control
- T/C [7]: 95 % of control

Compound: CCOC(=O)C(=CNc1cc(C)c2[nH]c3ccc(Br)cc3c2c1C)C(=O)OCC
- T/C (dose: 60.0 mg/kg/injection, schedule: Q01DX005 (ip), vehicle: saline with Tween-80): 93 % of control
- T/C (dose: 120.0 mg/kg/injection, schedule: Q01DX005 (ip), vehicle: saline with Tween-80): 93 % of control
- T/C (dose: 240.0 mg/kg/injection, schedule: Q01DX005 (ip), vehicle: saline with Tween-80): 86 % of control and 93 % of control

Compound: O=C1c2ccccc2C(=O)c2c(O)c(NCCCN(CCO)CCO)cc(O)c21
- T/C [1]: 101 % of control
- T/C [2]: 109 % of control
- T/C [3]: 113 % of control

Compound: Fc1ccc(Nc2c3ccccc3nc3ccccc23)cc1
- T/C (dose: 12.5 mg/kg/injection, schedule: Q01DX009 (ip), vehicle: saline with Tween-80): 110 % of control
- T/C (dose: 25.0 mg/kg/injection, schedule: Q01DX009 (ip), vehicle: saline with Tween-80): 120 % of control

Compound: CCC[C@@H]1C[C@@H](OC(=S)SC)C[C@H]2CCC(=O)N12
- T/C (dose: 50.0 mg/kg/injection, schedule: Q01DX005 (ip), vehicle: Klucel + Tween-80): 102 % of control
- T/C (dose: 100.0 mg/kg/injection, schedule: Q01DX005 (ip), vehicle: Klucel + Tween-80): 93 % of control
- T/C (dose: 200.0 mg/kg/injection, schedule: Q01DX005 (ip), vehicle: Klucel + Tween-80): 107 % of control

Compound: CN(Cc1cnc2nc(N)nc(N)c2n1)c1ccc(C(=O)NC(CCC(=O)OC(C)(C)C)C(=O)O)cc1 (stereo unspecified)
- T/C (dose: 5.0 mg/kg/injection, schedule: Q03HX024 (ip), vehicle: sodium bicarbonate): 156 % of control
- T/C (dose: 10.0 mg/kg/injection, schedule: Q03HX024 (ip), vehicle: sodium bicarbonate): 182 % of control
- T/C (dose: 20.0 mg/kg/injection, schedule: Q03HX024 (ip), vehicle: sodium bicarbonate): 230 % of control
- T/C (dose: 20.0 mg/kg/injection, schedule: Q04DX003 (ip), vehicle: sodium bicarbonate): 122 % of control
- T/C (dose: 40.0 mg/kg/injection, schedule: Q03HX024 (ip), vehicle: sodium bicarbonate): 269 % of control
- T/C (dose: 80.0 mg/kg/injection, schedule: Q03HX024 (ip), vehicle: sodium bicarbonate): 153 % of control

Compound: O=C1CN(/N=C/c2ccc(-c3cccc(C(F)(F)F)c3)o2)C(=O)N1
- T/C (dose: 50.0 mg/kg/injection, schedule: Q04DX002 (ip), vehicle: saline with Tween-80): 101 % of control
- T/C (dose: 100.0 mg/kg/injection, schedule: Q04DX002 (ip), vehicle: saline with Tween-80): 109 % of control

Compound: O=c1c(N=Nc2ccccc2)c(O)n(-c2ccccc2Cl)c(=S)n1-c1ccccc1
- T/C (dose: 25.0 mg/kg/injection, schedule: Q01DX001 (ip), vehicle: Klucel (hydroxypropylcellulose) (HPC)): 97 % of control
- T/C (dose: 50.0 mg/kg/injection, schedule: Q01DX001 (ip), vehicle: Klucel (hydroxypropylcellulose) (HPC)): 104 % of control
- T/C (dose: 100.0 mg/kg/injection, schedule: Q01DX001 (ip), vehicle: Klucel (hydroxypropylcellulose) (HPC)): 92 % of control

Compound: CN(C)c1ccc(NC(=S)Nc2ccccc2C(F)(F)F)cc1
- T/C [8]: 100 % of control
- T/C [9]: 100 % of control
- T/C [10]: 96 % of control

Compound: CC1CN1P(=O)(N1CC=CCC1)N1CC1C (stereo unspecified)
- T/C (dose: 22.0 mg/kg/injection, schedule: Q04DX003 (ip), vehicle: saline): 100 % of control
- T/C (dose: 33.0 mg/kg/injection, schedule: Q01DX009 (ip), vehicle: saline): 150 % of control
- T/C (dose: 33.0 mg/kg/injection, schedule: Q04DX003 (ip), vehicle: saline): 113 % of control
- T/C (dose: 50.0 mg/kg/injection, schedule: Q04DX003 (ip), vehicle: saline): 122 % of control
- T/C (dose: 75.0 mg/kg/injection, schedule: Q04DX003 (ip), vehicle: saline): 150 % of control

Compound: CC1OC(=O)C(C)C1=O (stereo unspecified)
- T/C [5]: 104 % of control
- T/C [6]: 92 % of control
- T/C [7]: 113 % of control

Compound: CC(C)=C/C(C)=N/Nc1ccc([N+](=O)[O-])cc1[N+](=O)[O-]
- T/C (dose: 25.0 mg/kg/injection, schedule: Q04DX003 (ip), vehicle: saline with Tween-80): 100 % of control
- T/C (dose: 50.0 mg/kg/injection, schedule: Q04DX003 (ip), vehicle: saline with Tween-80): 100 % of control
- T/C (dose: 100.0 mg/kg/injection, schedule: Q04DX003 (ip), vehicle: saline with Tween-80): 100 % of control

Compound: O=S(=O)(O)SCCCSS(=O)(=O)O
- T/C [11]: 100 % of control
- T/C (dose: 100.0 mg/kg/injection, schedule: Q01DX009 (ip), vehicle: saline): 99 % of control
- T/C (dose: 200.0 mg/kg/injection, schedule: Q01DX009 (ip), vehicle: saline): 102 % of control

Compound: CCC/C=C(\CC)COC(=O)Nc1ccccc1
- T/C [1]: 86 % of control
- T/C [2]: 100 % of control

Compound: N=C(N)c1ccc2oc(CCc3cc4ccc(C(=N)N)cc4[nH]3)cc2c1
- T/C (dose: 3.12 mg/kg/injection, schedule: Q04DX003 (ip), vehicle: suspension in saline): 100 % of control
- T/C (dose: 6.25 mg/kg/injection, schedule: Q04DX003 (ip), vehicle: suspension in saline): 113 % of control
- T/C (dose: 12.5 mg/kg/injection, schedule: Q04DX003 (ip), vehicle: suspension in saline): 110 % of control

Compound: O=NN(CCCl)C(=O)Nc1ccc(Br)cc1
- T/C (dose: 6.25 mg/kg/injection, schedule: Q01DX009 (ip), vehicle: saline): 122 % of control
- T/C (dose: 12.5 mg/kg/injection, schedule: Q01DX009 (ip), vehicle: suspension in saline): 150 % of control
- T/C (dose: 25.0 mg/kg/injection, schedule: Q01DX009 (ip), vehicle: suspension in saline): 167 % of control
- T/C [11]: 122 % of control
- T/C (dose: 50.0 mg/kg/injection, schedule: Q01DX009 (ip), vehicle: suspension in saline): 167 % of control

Compound: CCOc1ccc2[nH]c(=S)sc2c1
- T/C [8]: 100 % of control
- T/C [9]: 100 % of control
- T/C [10]: 101 % of control

Compound: CCOC(=O)CCC(=O)Oc1ccc2c(c1)C(=O)c1ccc(OC(=O)CCC(=O)OCC)cc1C2=O
- T/C (dose: 1.87 mg/kg/injection, schedule: Q01DX005 (ip), vehicle: Klucel (hydroxypropylcellulose) (HPC)): 99 % of control
- T/C (dose: 3.75 mg/kg/injection, schedule: Q01DX005 (ip), vehicle: Klucel (hydroxypropylcellulose) (HPC)): 99 % of control
- T/C (dose: 7.5 mg/kg/injection, schedule: Q01DX005 (ip), vehicle: Klucel (hydroxypropylcellulose) (HPC)): 99 % of control and 91 % of control
